Assay [1] deals with mouse cutaneous injury. The assay can be described thus: Mouse skin wound healing model. The format is in vivo, CD-1 derived male mice. The following applies: topical once daily for 10 days; test substances 100 μg/mouse, CGS-21680 10 μg/mouse. Here is the method:
In-vivo assays: Selected compounds were evaluated in an in-vivo mouse skin wound healing model by MDS Pharma Services using the following protocol. Groups of CD-1 derived male mice (n=5) weighting 24±2 g were used. Under hexobarbitol (90 mg/kg, IP) anesthesia, the shoulder and back region of each animal was shaved. A sharp punch (ID 12 mm) was applied to remove the skin including panniculus carnosus and adherent tissues. […] The percent closure of the wound (%) was calculated, and wound half-closure time (CT50) was analyzed by linear regression using Graph-Prism (Graph Software USA). One-way ANOVA followed by Dunnett's test was applied for comparison between the treated and its corresponding vehicle groups at each measurement time point. Differences are considered statistically significant at P<0.05.^41

Assay [2] concerns Salmonella typhimurium (ATCC 13311).
Assay [3] concerns Staphylococcus aureus Methicillin/Gentamicin/Tetracycline Resistant (ATCC 33592).
Assay [4] deals with Mycobacterium ranae (ATCC 110).
For assay [5], the system named is Bacillus subtillis (ATCC 43223).
Assay [6] concerns Salmonella typhimurium strain LT2. The assay can be described thus: In vivo challenge, gram-negative infection. The following applies: Balb/c mice, intraperitoneal challenge 2.5×10^6; 5 mg/kg initial, then 2.5 mg/kg morning and afternoon.

In brackets after ≈: the same amount, converted by molar mass. Where a SMILES comes first, the peptide text is derived from it. [ ]: non-standard residue; d: D form. Oic = O=C(O)[C@@H]1C[C@@H]2CCCC[C@@H]2N1; Tic = O=C(O)[C@@H]1Cc2ccccc2CN1; Orn = NCCC[C@H](N)C(=O)O

For `CC(=O)NCC(=O)N[C@@H](Cc1ccccc1)C(=O)N1Cc2ccccc2C[C@H]1C(=O)N1[C@H](C(=O)NCC(=O)N[C@@H](CCCN)C(=O)N2Cc3ccccc3C[C@H]2C(=O)N2[C@H](C(=O)NCC(=O)N[C@@H](Cc3ccccc3)C(=O)N3Cc4ccccc4C[C@H]3C(=O)N3[C@H](C(=O)NCC(=O)N[C@@H](CCCN)C(=O)N4Cc5ccccc5C[C@H]4C(=O)N[C@@H](CCCN)C(=O)N[C@@H](CCCN)C(=O)N[C@@H](CCCN)C(=O)N[C@@H](CCCN)C(N)=O)C[C@@H]4CCCC[C@@H]43)C[C@@H]3CCCC[C@@H]32)C[C@@H]2CCCC[C@@H]21` [FKAB-1Gp, Ac-GF-Tic-Oic-G-Orn-Tic-Oic-GF-Tic-Oic-G-Orn-Tic-Orn-Orn-Orn-Orn-CONH2] (Ac-GF[Tic][Oic]G[Orn][Tic][Oic]GF[Tic][Oic]G[Orn][Tic][Orn][Orn][Orn][Orn]-NH2), in assay [1], the “CT50 (wound half-closure time)” value stood at 5.7 days, the “wound closure Day 3” value worked out at 38.8%, the “wound closure Day 5” value came to 51.2% and the “wound closure Day 7” value was determined as 67.2%. In addition, in assay [1], the “wound closure Day 9” value was 72.8% and the “wound closure Day 11” value was found to be 81.1%. The “p(MIC) Salmonella typhimurium” value in assay [2] (-log(MIC)) came out at 5.52. The “MIC Salmonella typhimurium” value in assay [2] (ATCC 13311) was 3 µM (≈ 7.07 µg/mL). Moreover, the “p(MIC) Staphylococcus aureus ME/GM/TC resistant” value in assay [3] (-log(MIC)) worked out at 5.52. Moreover, the “Actual Bioactivity” value in assay [3] (p(MIC) used in Staphylococcus aureus QSAR model) was 5.520. In assay [4], the “Actual Bioactivity” value came out at 5.000. Moreover, in assay [4] (ATCC 110), the “MIC Mycobacterium ranae” value amounted to 10.00 µM (≈ 23.6 µg/mL) and the “Minimum Inhibitory Concentration Mycobacterium ranae” value stood at 10 µM. Moreover, the “p(MIC) Bacillus Subtillis” value in assay [5] (-log(MIC)) is 6.52. Besides, the “MIC Bacillus Subtillis” value in assay [5] (ATCC 43223) turned out to be 0.30 µM (≈ 0.707 µg/mL). Further, in assay [6], the “morbidity (survival compared to control group)” value is listed as “Accelerated morbidity”.
